EP0007672A1, “Isocyanoalkenes, process and useful intermediates for their preparation, pharmaceutical and fungicidal preparations containing those isocyanoalkenes and the use of the fungicidal preparations in agriculture” (GIST-BROCADES N.V., priority 1978, dated 1980)
≈ marks a conversion by molar mass, not a printed value. Read-outs that look alike come from different tables or passages of the source.

Tests used:
Experiment in all cases: MIC (Minimum Inhibitory Concentration)
Format in all cases: cell-based
[1] = test system: Trichophyton soudanese joyeux; settings: Trichophyton soudanese joyeux 440-63; read-out: MIC values
[2] = test system: Trichophyton equinum
[3] = test system: Trichophyton mentagrophytus
[4] = test system: Trichophyton schoenleinii; settings: Trichophyton schoenleinii 435-63; read-out: MIC values
[5] = test system: Trichophyton tonsurans; settings: Trichophyton tonsurans 561-50; read-out: MIC values
[6] = test system: Streptococcus haemolyticus; settings: Streptococcus haemolyticus A 1088; read-out: MIC values
[7] = test system: Pasteurella multocida; settings: read-out: MIC values
[8] = test system: Trichophyton verrucosum
[9] = test system: Trichophyton rubrum
[10] = test system: Candida albicans
[11] = test system: Trichophyton violoceum; settings: Trichophyton violoceum 442-62; read-out: MIC values
[12] = test system: Trichophyton quickeaneum; settings: Trichophyton quickeaneum A 2040; read-out: MIC values
[13] = Trichophyton equinum 856-71, read-out: MIC values
[14] = Trichophyton mentagrophytus 367-68, read-out: MIC values
[15] = Trichophyton mentagrophytus 421-67, read-out: MIC values
[16] = Trichophyton mentagrophytus A 3252, read-out: MIC values
[17] = Trichophyton mentagrophytus R 177, read-out: MIC values
[18] = Trichophyton mentagrophytus R 178, read-out: MIC values
[19] = Trichophyton mentagrophytus RRL 305, read-out: MIC values
[20] = Trichophyton verrucosum 134-66, read-out: MIC values
[21] = Trichophyton rubrum 218-65, read-out: MIC values
[22] = Trichophyton rubrum 494-62, read-out: MIC values
[23] = Trichophyton rubrum A 810, read-out: MIC values

Question: `[C-]#[N+]C(=Cc1cccn1C)S(=O)(=O)c1ccc(C)cc1` [Example 30, 2-[1-isocyano-1-(4-toluenesulphonyl)-ethen-2-yl]-1-methylpyrrole] was tested. Which MIC [1] did it give?
Answer: 6 µg/mL (≈ 21 µM)

Question: What about the MIC ([2]; Trichophyton equinum 441-51, read-out: MIC values) of the same compound?
Answer: 0.4 µg/mL (≈ 1.4 µM)

Question: And the MIC [2, 13]?
Answer: > 100 µg/mL

Question: And the MIC [3, 14]?
Answer: 50 µg/mL (≈ 175 µM)

Question: What about the MIC [3, 15] of the same compound?
Answer: > 100 µg/mL

Question: And the MIC [3, 16]?
Answer: > 100 µg/mL

Question: What about the MIC [3, 17] of the same compound?
Answer: 100 µg/mL (≈ 349 µM)

Question: And the MIC [3, 18]?
Answer: > 100 µg/mL

Question: What about the MIC [3, 19] of the same compound?
Answer: > 100 µg/mL

Question: And the MIC [4]?
Answer: 25 µg/mL (≈ 87.3 µM)

Question: And the MIC [5]?
Answer: 0.4 µg/mL (≈ 1.4 µM)

Question: And the MIC [6]?
Answer: 25 µg/mL (≈ 87.3 µM)

Question: What about the MIC ([7]; Pasteurella multocida A 723) of the same compound?
Answer: 25 µg/mL (≈ 87.3 µM)

Question: What about the MIC [8, 20] of the same compound?
Answer: 6 µg/mL (≈ 21 µM)

Question: What about the MIC [9, 21] of the same compound?
Answer: 50 µg/mL (≈ 175 µM)

Question: And the MIC [9, 22]?
Answer: > 100 µg/mL

Question: And the MIC [9, 23]?
Answer: 50 µg/mL (≈ 175 µM)

Question: What about the MIC ([10]; Candida albicans A 7, read-out: MIC values) of the same compound?
Answer: 6 µg/mL (≈ 21 µM)

Question: What about the MIC ([10]; Candida albicans A 3140, read-out: MIC values) of the same compound?
Answer: 12.5 µg/mL (≈ 43.7 µM)

Question: What about the MIC ([10]; Candida albicans A 3141, read-out: MIC values) of the same compound?
Answer: 12.5 µg/mL (≈ 43.7 µM)

Question: And the MIC ([10]; Candida albicans A 3142, read-out: MIC values)?
Answer: 12.5 µg/mL (≈ 43.7 µM)

Question: What about the MIC ([10]; Candida albicans A 3143, read-out: MIC values) of the same compound?
Answer: 6 µg/mL (≈ 21 µM)

Question: And the MIC ([10]; Candida albicans A 3144, read-out: MIC values)?
Answer: 6 µg/mL (≈ 21 µM)

Question: And the MIC ([10]; Candida albicans A 3145, read-out: MIC values)?
Answer: 12.5 µg/mL (≈ 43.7 µM)

Question: What about the MIC ([10]; Candida albicans A 3165, read-out: MIC values) of the same compound?
Answer: 6 µg/mL (≈ 21 µM)

Question: And the MIC ([10]; Candida albicans A 3166, read-out: MIC values)?
Answer: 6 µg/mL (≈ 21 µM)

Question: What about the MIC ([10]; Candida albicans A 3167, read-out: MIC values) of the same compound?
Answer: 3 µg/mL (≈ 10.5 µM)

Question: What about the MIC ([10]; Candida albicans A 3168, read-out: MIC values) of the same compound?
Answer: 12.5 µg/mL (≈ 43.7 µM)

Question: What about the MIC ([10]; Candida albicans A 3169, read-out: MIC values) of the same compound?
Answer: 6 µg/mL (≈ 21 µM)

Question: And the MIC ([10]; Candida albicans A 3171, read-out: MIC values)?
Answer: 12.5 µg/mL (≈ 43.7 µM)

Question: What about the MIC ([10]; Candida albicans A 3184, read-out: MIC values) of the same compound?
Answer: 6 µg/mL (≈ 21 µM)

Question: And the MIC ([10]; Candida albicans A 3190, read-out: MIC values)?
Answer: 12.5 µg/mL (≈ 43.7 µM)

Question: And the MIC ([10]; Candida albicans A 3191, read-out: MIC values)?
Answer: > 100 µg/mL

Question: What about the MIC ([10]; Candida albicans A 3192, read-out: MIC values) of the same compound?
Answer: 6 µg/mL (≈ 21 µM)

Question: And the MIC ([10]; Candida albicans A 3194, read-out: MIC values)?
Answer: 12.5 µg/mL (≈ 43.7 µM)

Question: And the MIC ([10]; Candida albicans A 3196, read-out: MIC values)?
Answer: 12.5 µg/mL (≈ 43.7 µM)

Question: What about the MIC [11] of the same compound?
Answer: 6 µg/mL (≈ 21 µM)

Question: For `Clc1ccc(COC(Cn2ccnc2)c2ccc(Cl)cc2Cl)c(Cl)c1` (stereo not drawn) [miconazole, reference compound], which MIC [1] is on record?
Answer: 1.5 µg/mL (≈ 3.6 µM)

Question: And the MIC ([2]; Trichophyton equinum 182-76, read-out: MIC values)?
Answer: 0.4 µg/mL (≈ 0.961 µM)

Question: And the MIC [2, 13]?
Answer: < 0.05 µg/mL

Question: And the MIC [3, 14]?
Answer: 3 µg/mL (≈ 7.21 µM)

Question: What about the MIC [3, 15] of the same compound?
Answer: 0.2 µg/mL (≈ 0.481 µM)

Question: And the MIC [3, 16]?
Answer: 0.4 µg/mL (≈ 0.961 µM)

Question: And the MIC [3, 17]?
Answer: 0.4 µg/mL (≈ 0.961 µM)

Question: And the MIC [3, 18]?
Answer: 25 µg/mL (≈ 60.1 µM)

Question: What about the MIC [3, 19] of the same compound?
Answer: 0.4 µg/mL (≈ 0.961 µM)

Question: And the MIC [4]?
Answer: 0.2 µg/mL (≈ 0.481 µM)

Question: What about the MIC [5] of the same compound?
Answer: 0.1 µg/mL (≈ 0.24 µM)

Question: And the MIC ([7]; Pasteurella multocida)?
Answer: > 100 µg/mL

Question: And the MIC [8, 20]?
Answer: 0.8 µg/mL (≈ 1.92 µM)

Question: And the MIC ([8]; Trichophyton verrucosum A 2922, read-out: MIC values)?
Answer: 0.8 µg/mL (≈ 1.92 µM)

Question: And the MIC [9, 21]?
Answer: 0.1 µg/mL (≈ 0.24 µM)

Question: And the MIC [9, 22]?
Answer: 0.8 µg/mL (≈ 1.92 µM)

Question: What about the MIC [9, 23] of the same compound?
Answer: 0.8 µg/mL (≈ 1.92 µM)

Question: What about the MIC [12] of the same compound?
Answer: 0.1 µg/mL (≈ 0.24 µM)

Question: What about the MIC ([10]; read-out: MIC values, Candida albicans A 7) of the same compound?
Answer: 0.2 µg/mL (≈ 0.481 µM)

Question: What about the MIC ([10]; read-out: MIC values, Candida albicans A 3140) of the same compound?
Answer: 0.1 µg/mL (≈ 0.24 µM)

Question: What about the MIC ([10]; read-out: MIC values, Candida albicans A 3141) of the same compound?
Answer: < 0.05 µg/mL

Question: And the MIC ([10]; read-out: MIC values, Candida albicans A 3144)?
Answer: 0.8 µg/mL (≈ 1.92 µM)

Question: What about the MIC ([10]; read-out: MIC values, Candida albicans A 3145) of the same compound?
Answer: < 0.05 µg/mL

Question: And the MIC ([10]; read-out: MIC values, Candida albicans A 3165)?
Answer: 0.2 µg/mL (≈ 0.481 µM)

Question: What about the MIC ([10]; read-out: MIC values, Candida albicans A 3167) of the same compound?
Answer: < 0.05 µg/mL

Question: What about the MIC ([10]; read-out: MIC values, Candida albicans A 3168) of the same compound?
Answer: 100 µg/mL (≈ 240 µM)

Question: What about the MIC ([10]; read-out: MIC values, Candida albicans A 3169) of the same compound?
Answer: 1.5 µg/mL (≈ 3.6 µM)

Question: And the MIC ([10]; read-out: MIC values, Candida albicans A 3171)?
Answer: < 0.05 µg/mL

Question: What about the MIC ([10]; read-out: MIC values, Candida albicans A 3190) of the same compound?
Answer: < 0.05 µg/mL

Question: And the MIC ([10]; read-out: MIC values, Candida albicans A 3191)?
Answer: < 0.05 µg/mL

Question: What about the MIC ([10]; read-out: MIC values, Candida albicans A 3194) of the same compound?
Answer: 0.2 µg/mL (≈ 0.481 µM)

Question: What about the MIC [11] of the same compound?
Answer: 0.8 µg/mL (≈ 1.92 µM)
